Assay results published in ChEMBL document CHEMBL1201862, “PubChem BioAssay data set” (2004).
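Dose response: 5 concentrations. Exposure: 48 h. Format: 96-well plates. Endpoint: linear interpolation; highest concentration if not reached. Here, GI50 denotes the concentration required for 50% inhibition of growth.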 Active and inactive are the calls of the source. No stated cut-off is given here; in the data, active = GI50 up to about 1.1 µM and inactive = higher.

Columns and labels:
Experiment in all cases: DTP human tumour cell line panel, 48 h
SR = test system: SR
ACHN = test system: ACHN
UACC-257 = test system: UACC-257
COLO 205 = test system: COLO 205
OVCAR-4 = test system: OVCAR-4
M14 = test system: M14
786-0 = test system: 786-0
KM12 = test system: KM12
LOX IMVI = test system: LOX IMVI
OVCAR-5 = test system: OVCAR-5
HCC 2998 = test system: HCC 2998
MOLT-4 = test system: MOLT-4
IGROV-1 = test system: IGROV-1
HOP-62 = test system: HOP-62
TK-10 = test system: TK-10
SK-MEL-28 = test system: SK-MEL-28
NCI-H226 = test system: NCI-H226
OVCAR-3 = test system: OVCAR-3

Measured: GI50

O=C(O)c1ccc([N+](=O)[O-])c2c(=O)c3ccccc3[nH]c12
inactive: SR > 100 µM | ACHN > 100 µM | UACC-257 > 100 µM | COLO 205 > 100 µM | OVCAR-4 > 100 µM | M14 > 100 µM | 786-0 > 100 µM | KM12 > 100 µM | LOX IMVI > 100 µM | OVCAR-5 > 100 µM | HCC 2998 > 100 µM | MOLT-4 > 100 µM | IGROV-1 > 100 µM | HOP-62 > 100 µM

Cc1ccc(Cl)c(NC(=O)C(=O)C(C(=O)c2ccncc2)C2OC(=O)c3ccccc32)c1 (stereo not given)
inactive: SR > 100 µM | ACHN > 100 µM | UACC-257 > 100 µM | COLO 205 > 100 µM | OVCAR-4 > 100 µM | M14 > 100 µM | 786-0 > 100 µM | TK-10 > 100 µM | LOX IMVI > 100 µM | SK-MEL-28 > 100 µM | HCC 2998 > 100 µM | IGROV-1 > 100 µM | NCI-H226 > 100 µM | HOP-62 > 100 µM

COc1ccc2oc(-c3cc4cc(OC)ccc4o3)cc2c1
inactive: ACHN > 100 µM | UACC-257 > 100 µM | COLO 205 > 100 µM | OVCAR-4 > 100 µM | M14 > 100 µM | 786-0 > 100 µM | KM12 > 100 µM | TK-10 > 100 µM | LOX IMVI > 100 µM | SK-MEL-28 > 100 µM | OVCAR-5 > 100 µM | HCC 2998 > 100 µM | MOLT-4 > 100 µM | IGROV-1 > 100 µM | HOP-62 > 100 µM | OVCAR-3 > 100 µM

CN(CC(=O)O)S(=O)(=O)c1ccc(F)cc1
inactive: ACHN > 100 µM | UACC-257 > 100 µM | COLO 205 > 100 µM | OVCAR-4 > 100 µM | M14 > 100 µM | 786-0 > 100 µM | KM12 > 100 µM | TK-10 > 100 µM | LOX IMVI > 100 µM | SK-MEL-28 > 100 µM | OVCAR-5 > 100 µM | HCC 2998 > 100 µM | MOLT-4 > 100 µM | IGROV-1 > 100 µM | OVCAR-3 > 100 µM

CCc1ccccc1NC(=O)/C(CC(=O)c1c(C)[n+]([O-])c2ccccc2[n+]1[O-])=N\NS(=O)(=O)c1ccc(C)cc1
inactive: SR 16.6 µM | ACHN 57 µM | UACC-257 23.9 µM | COLO 205 36.8 µM | OVCAR-4 22.5 µM | M14 32.8 µM | 786-0 87.5 µM | KM12 36.9 µM | TK-10 > 100 µM | SK-MEL-28 47.9 µM | OVCAR-5 > 100 µM | HCC 2998 47.1 µM | MOLT-4 18 µM | IGROV-1 26.5 µM | NCI-H226 > 100 µM | HOP-62 > 100 µM | OVCAR-3 12.1 µM

CCCCN1C(=O)C2c3[nH]c4ccccc4c3C3CCCCC3C2C1=O.CCCCN1C(=O)C2c3[nH]c4ccccc4c3[C@@H]3CCCCC3C2C1=O (stereo not given)
inactive: ACHN 7.36 µM | COLO 205 26.7 µM | OVCAR-4 2.38 µM | M14 13.4 µM | 786-0 4.41 µM | TK-10 13.7 µM | LOX IMVI 10.9 µM | SK-MEL-28 29.6 µM | HCC 2998 8.85 µM | MOLT-4 5.69 µM | IGROV-1 19.1 µM | HOP-62 6.4 µM | OVCAR-3 12.4 µM

COC(=O)N/N=C(/Cc1occc(=O)c1O)C(=O)Nc1ccc([N+](=O)[O-])cc1[N+](=O)[O-]
inactive: SR > 100 µM | ACHN > 100 µM | UACC-257 > 100 µM | COLO 205 > 100 µM | OVCAR-4 > 100 µM | M14 > 100 µM | 786-0 > 100 µM | KM12 > 100 µM | TK-10 > 100 µM | LOX IMVI > 100 µM | SK-MEL-28 > 100 µM | OVCAR-5 > 100 µM | HCC 2998 > 100 µM | MOLT-4 > 100 µM | IGROV-1 > 100 µM | NCI-H226 > 100 µM | HOP-62 > 100 µM

COc1ccc(-c2cc(=O)c3ccccc3o2)cc1N
inactive: ACHN 37.1 µM | UACC-257 51.3 µM | COLO 205 33.4 µM | OVCAR-4 40.9 µM | M14 27.1 µM | 786-0 > 100 µM | KM12 29.3 µM | TK-10 > 100 µM | LOX IMVI 34.6 µM | SK-MEL-28 57.8 µM | OVCAR-5 56 µM | HCC 2998 38 µM | MOLT-4 26.3 µM | IGROV-1 55.5 µM | NCI-H226 > 100 µM | HOP-62 20.5 µM | OVCAR-3 31.8 µM

O/N=C(\c1nc2ccc(Cl)cc2nc1O)C(O)c1ccc(Cl)cc1Cl (stereo not given)
inactive: SR > 100 µM | ACHN > 100 µM | UACC-257 > 100 µM | COLO 205 > 100 µM | OVCAR-4 > 100 µM | M14 > 100 µM | 786-0 > 100 µM | KM12 > 100 µM | LOX IMVI > 100 µM | SK-MEL-28 > 100 µM | OVCAR-5 > 100 µM | HCC 2998 > 100 µM | MOLT-4 > 100 µM | IGROV-1 > 100 µM | NCI-H226 > 100 µM | HOP-62 > 100 µM | OVCAR-3 > 100 µM

Cc1cc(Cl)ccc1N1C(=O)C(=O)C(c2nc3ccccc3o2)C(=O)C1=O
inactive: SR 34 µM | ACHN > 100 µM | UACC-257 71 µM | COLO 205 31.1 µM | OVCAR-4 > 100 µM | M14 67 µM | 786-0 > 100 µM | KM12 > 100 µM | TK-10 > 100 µM | SK-MEL-28 96.4 µM | HCC 2998 > 100 µM | MOLT-4 30.4 µM | IGROV-1 35.6 µM | NCI-H226 > 100 µM | HOP-62 > 100 µM | OVCAR-3 61.1 µM

COc1ccc(/C=[N+](\[O-])[C@H](COCc2ccccc2)c2ccccc2)cc1
inactive: ACHN 51.8 µM | UACC-257 > 100 µM | COLO 205 84.3 µM | 786-0 > 100 µM | KM12 89.1 µM | TK-10 > 100 µM | LOX IMVI 89.9 µM | SK-MEL-28 38 µM | OVCAR-5 > 100 µM | HCC 2998 > 100 µM | MOLT-4 25.2 µM | IGROV-1 > 100 µM | HOP-62 > 100 µM | OVCAR-3 44.4 µM

CC(=O)OC(=O)O/C=C\CCl
inactive: SR 42 µM | ACHN > 100 µM | UACC-257 > 100 µM | COLO 205 > 100 µM | OVCAR-4 > 100 µM | M14 > 100 µM | 786-0 > 100 µM | KM12 > 100 µM | TK-10 > 100 µM | SK-MEL-28 > 100 µM | HCC 2998 > 100 µM | MOLT-4 38 µM | IGROV-1 > 100 µM | NCI-H226 > 100 µM | HOP-62 > 100 µM | OVCAR-3 > 100 µM

COCC(O)CN1C(N)=NC(O)C1O (stereo not given)
inactive: SR > 100 µM | ACHN > 100 µM | UACC-257 > 100 µM | COLO 205 > 100 µM | M14 > 100 µM | 786-0 > 100 µM | KM12 > 100 µM | TK-10 > 100 µM | LOX IMVI > 100 µM | SK-MEL-28 > 100 µM | OVCAR-5 > 100 µM | HCC 2998 > 100 µM | NCI-H226 > 100 µM | HOP-62 > 100 µM

C[n+]1cccc(NC(=O)c2ccc(NC(=O)C34CCC(C(=O)Nc5ccc(C(=O)Nc6ccc[n+](C)c6)cc5)(CC3)CC4)cc2)c1
inactive: SR 21.3 µM | ACHN 17.9 µM | UACC-257 15.7 µM | COLO 205 > 10 µM | OVCAR-4 > 100 µM | M14 > 100 µM | 786-0 3.7 µM | KM12 1.92 µM | LOX IMVI 38.5 µM | SK-MEL-28 42.2 µM | OVCAR-5 > 100 µM | MOLT-4 56.2 µM | IGROV-1 13.5 µM | NCI-H226 > 100 µM | HOP-62 25.5 µM

COc1cc(C2C(C(=O)Nc3cc(F)c(F)cc3F)=C(C)NC(C)=C2C(=O)Nc2cc(F)c(F)cc2F)ccc1O
inactive: ACHN 18.8 µM | UACC-257 17.9 µM | COLO 205 30.9 µM | OVCAR-4 17.3 µM | M14 25.2 µM | 786-0 26.7 µM | KM12 13.3 µM | TK-10 28.3 µM | LOX IMVI 15.2 µM | SK-MEL-28 25.4 µM | OVCAR-5 17.4 µM | HCC 2998 13.9 µM | MOLT-4 11.3 µM | IGROV-1 23.1 µM | NCI-H226 23.6 µM | HOP-62 12.8 µM | OVCAR-3 14.3 µM

Cc1ccc(NC(=O)c2cccc([N+](=O)[O-])c2O)c([N+](=O)[O-])c1
inactive: ACHN 16.4 µM | UACC-257 16.2 µM | COLO 205 19.9 µM | OVCAR-4 13.5 µM | M14 16.7 µM | 786-0 12.7 µM | KM12 10.6 µM | LOX IMVI 11.5 µM | SK-MEL-28 16.7 µM | OVCAR-5 20.2 µM | HCC 2998 15.9 µM | MOLT-4 > 10 µM | IGROV-1 20.9 µM | NCI-H226 3.29 µM | HOP-62 20.5 µM | OVCAR-3 18.9 µM

CCN(CC)c1ccc(/N=N/c2ccc([N+](=O)[O-])cc2OC(=O)/C=C/c2ccccc2)c(OC(=O)/C=C/c2ccccc2)c1
inactive: SR 4.27 µM | ACHN 2.1 µM | UACC-257 2.23 µM | COLO 205 > 100 µM | OVCAR-4 21 µM | M14 12.7 µM | 786-0 7.43 µM | KM12 3.83 µM | TK-10 27.3 µM | LOX IMVI 4.74 µM | SK-MEL-28 7.03 µM | HCC 2998 12.7 µM | MOLT-4 5.16 µM | IGROV-1 18.5 µM | NCI-H226 1.44 µM | HOP-62 2.12 µM | OVCAR-3 3.18 µM
